Measurements: ChEMBL document CHEMBL1201862, “PubChem BioAssay data set” (2004)
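Dose response: 5 concentrations. Exposure: 48 h. Format: 96-well plates. Endpoint: linear interpolation; highest concentration if not reached. Abbreviation: GI50, concentration required for 50% inhibition of growth.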 Active and inactive are the calls of the source. Rule as the data show it: active = GI50 up to about 1.1 µM and inactive = higher.

Experiments:
Experiment in all cases: NCI-60 cell line screen, 48 h
UACC-62 = tested on: UACC-62
U-251 = tested on: U-251
SK-MEL-2 = tested on: SK-MEL-2
KM-20L2 = tested on: KM-20L2
SNB-19 = tested on: SNB-19
SK-MEL-5 = tested on: SK-MEL-5
ACHN = tested on: ACHN
OVCAR-3 = tested on: OVCAR-3
EKVX = tested on: EKVX
TK-10 = tested on: TK-10
K562 = tested on: K562
A498 = tested on: A498
LOX IMVI = tested on: LOX IMVI
IGROV-1 = tested on: IGROV-1
RXF 393 = tested on: RXF 393
SF-539 = tested on: SF-539
CAKI-1 = tested on: CAKI-1
M19-MEL = tested on: M19-MEL
HOP-62 = tested on: HOP-62
Malme-3M = tested on: Malme-3M
HCC 2998 = tested on: HCC 2998
NCI-H460 = tested on: NCI-H460
SK-MEL-28 = tested on: SK-MEL-28
SF-268 = tested on: SF-268
OVCAR-5 = tested on: OVCAR-5
UACC-257 = tested on: UACC-257
SW-620 = tested on: SW-620
SN12C = tested on: SN12C
MOLT-4 = tested on: MOLT-4
SR = tested on: SR
HT-29 = tested on: HT-29
HOP-92 = tested on: HOP-92
NCI-H522 = tested on: NCI-H522
HL-60 = tested on: HL-60
786-0 = tested on: 786-0
SNB-75 = tested on: SNB-75
CCRF-CEM = tested on: CCRF-CEM
DLD-1 = tested on: DLD-1
DMS-114 = tested on: DMS-114
KM12 = tested on: KM12
HOP-18 = tested on: HOP-18
SK-OV-3 = tested on: SK-OV-3
A549 = tested on: A549
COLO 205 = tested on: COLO 205
HCT-15 = tested on: HCT-15
M14 = tested on: M14
NCI-H23 = tested on: NCI-H23
OVCAR-8 = tested on: OVCAR-8
LXFL 529 = tested on: LXFL 529
RPMI-8226 = tested on: RPMI-8226
NCI-H226 = tested on: NCI-H226
OVCAR-4 = tested on: OVCAR-4
SNB-78 = tested on: SNB-78
XF498 = tested on: XF498
RXF 631 = tested on: RXF 631
HCT-116 = tested on: HCT-116
UO-31 = tested on: UO-31
SF-295 = tested on: SF-295
DMS-273 = tested on: DMS-273

For `C=C(C)C1CC=C(C)CC1` (stereo unspecified), the GI50 (UACC-62) was 838 µM (inactive), the GI50 (U-251) was 787 µM (inactive) and the GI50 (SK-MEL-2) was 798 µM (inactive). For the same compound, the GI50 (KM-20L2) was 904 µM (inactive), the GI50 (SNB-19) was 906 µM (inactive) and the GI50 (SK-MEL-5) was 849 µM (inactive). For the same compound, the GI50 (ACHN) was 871 µM (inactive), the GI50 (OVCAR-3) was 891 µM (inactive) and the GI50 (EKVX) was 1030 µM (inactive). For the same compound, the GI50 (TK-10) was 1000 µM (inactive), the GI50 (K562) was 813 µM (inactive) and the GI50 (A498) was 906 µM (inactive). For the same compound, the GI50 (LOX IMVI) was 897 µM (inactive), the GI50 (IGROV-1) was 993 µM (inactive) and the GI50 (RXF 393) was 982 µM (inactive). For the same compound, the GI50 (SF-539) was 899 µM (inactive), the GI50 (CAKI-1) was 935 µM (inactive) and the GI50 (M19-MEL) was 879 µM (inactive). The GI50 (HOP-62) was 883 µM (inactive), the GI50 (Malme-3M) was 885 µM (inactive) and the GI50 (HCC 2998) was 973 µM (inactive). For the same compound, the GI50 (NCI-H460) was 968 µM (inactive), the GI50 (SK-MEL-28) was 951 µM (inactive) and the GI50 (SF-268) was 944 µM (inactive). For the same compound, the GI50 (OVCAR-5) was 968 µM (inactive), the GI50 (UACC-257) was 927 µM (inactive) and the GI50 (SW-620) was 895 µM (inactive). For the same compound, the GI50 (SN12C) was 893 µM (inactive), the GI50 (MOLT-4) was 1140 µM (inactive) and the GI50 (SR) was 889 µM (inactive). For the same compound, the GI50 (HT-29) was 923 µM (inactive), the GI50 (HOP-92) was 841 µM (inactive) and the GI50 (NCI-H522) was 989 µM (inactive). For the same compound, the GI50 (HL-60) was 817 µM (inactive), the GI50 (786-0) was 923 µM (inactive) and the GI50 (SNB-75) was 865 µM (inactive). The GI50 (CCRF-CEM) was 826 µM (inactive), the GI50 (DLD-1) was 885 µM (inactive) and the GI50 (DMS-114) was 891 µM (inactive). The GI50 (KM12) was 1020 µM (inactive), the GI50 (HOP-18) was > 100 µM (inactive) and the GI50 (SK-OV-3) was 1140 µM (inactive). For the same compound, the GI50 (A549) was 968 µM (inactive), the GI50 (COLO 205) was 1010 µM (inactive) and the GI50 (HCT-15) was 891 µM. The GI50 (M14) was 893 µM (inactive), the GI50 (NCI-H23) was 933 µM (inactive) and the GI50 (OVCAR-8) was 1040 µM (inactive). For the same compound, the GI50 (LXFL 529) was 855 µM (inactive), the GI50 (RPMI-8226) was > 100 µM (inactive) and the GI50 (NCI-H226) was 830 µM (inactive). For the same compound, the GI50 (OVCAR-4) was 964 µM (inactive), the GI50 (SNB-78) was 986 µM (inactive) and the GI50 (XF498) was 993 µM (inactive). The GI50 (RXF 631) was 908 µM (inactive), the GI50 (HCT-116) was 923 µM (inactive) and the GI50 (UO-31) was 925 µM (inactive). The GI50 (SF-295) was 925 µM (inactive) and the GI50 (DMS-273) was 993 µM (inactive).

In the case of `COc1ccccc1/C=C\c1cc(OC)c(OC)c(OC)c1`, the GI50 (UACC-62) is reported as 5.9 µM (inactive), the GI50 (U-251) is reported as 6.03 µM (inactive) and the GI50 (SNB-19) is reported as 39.4 µM (inactive). The GI50 (SK-MEL-5) was 4.33 µM (inactive), the GI50 (ACHN) was 33.8 µM (inactive) and the GI50 (OVCAR-3) was 10.2 µM (inactive). The GI50 (EKVX) was 15.2 µM (inactive), the GI50 (TK-10) was 43.6 µM (inactive) and the GI50 (K562) was 4.06 µM (inactive). The GI50 (A498) was 7.64 µM (inactive), the GI50 (LOX IMVI) was 9.59 µM (inactive) and the GI50 (IGROV-1) was 6.41 µM (inactive). For the same compound, the GI50 (RXF 393) was 11 µM (inactive), the GI50 (SF-539) was 6.4 µM (inactive) and the GI50 (CAKI-1) was 8.22 µM (inactive). For the same compound, the GI50 (M19-MEL) was 9.1 µM (inactive), the GI50 (HOP-62) was 5.18 µM (inactive) and the GI50 (Malme-3M) was 16.5 µM (inactive). For the same compound, the GI50 (NCI-H460) was 6.85 µM (inactive), the GI50 (SK-MEL-28) was 33.9 µM (inactive) and the GI50 (OVCAR-5) was 34 µM (inactive). For the same compound, the GI50 (UACC-257) was 31.6 µM (inactive), the GI50 (SW-620) was 3.85 µM (inactive) and the GI50 (SN12C) was 29.3 µM (inactive). For the same compound, the GI50 (MOLT-4) was 4.31 µM (inactive), the GI50 (HT-29) was 3.97 µM (inactive) and the GI50 (HOP-92) was 8.65 µM (inactive). For the same compound, the GI50 (NCI-H522) was 6.14 µM (inactive), the GI50 (HL-60) was 3.22 µM (inactive) and the GI50 (786-0) was 31.2 µM (inactive). The GI50 (SNB-75) was 10.7 µM (inactive), the GI50 (CCRF-CEM) was 16.7 µM (inactive) and the GI50 (DLD-1) was 23.2 µM (inactive). The GI50 (DMS-114) was 6.41 µM (inactive), the GI50 (KM12) was 6.89 µM (inactive) and the GI50 (HOP-18) was > 100 µM (inactive). The GI50 (A549) was 6.08 µM (inactive), the GI50 (COLO 205) was 4.46 µM (inactive) and the GI50 (HCT-15) was 4.2 µM. For the same compound, the GI50 (M14) was 5.85 µM (inactive), the GI50 (OVCAR-8) was 24.5 µM (inactive) and the GI50 (LXFL 529) was 12.9 µM (inactive). For the same compound, the GI50 (RPMI-8226) was 5.01 µM (inactive), the GI50 (NCI-H226) was 19.2 µM (inactive) and the GI50 (OVCAR-4) was 25.8 µM (inactive). For the same compound, the GI50 (SNB-78) was 28.3 µM (inactive), the GI50 (XF498) was 9.64 µM (inactive) and the GI50 (RXF 631) was 15.8 µM (inactive). For the same compound, the GI50 (HCT-116) was 9.23 µM (inactive), the GI50 (UO-31) was 16.1 µM (inactive) and the GI50 (SF-295) was 4.83 µM (inactive). The GI50 (DMS-273) was 4.62 µM (inactive).

`O=C(Nc1nc2c(ncn2C2OC(CO)C(O)C2O)c(=O)[nH]1)c1ccccc1` (stereo unspecified) was tested, and the GI50 (UACC-62) was > 100 µM (inactive), the GI50 (U-251) was > 100 µM (inactive) and the GI50 (SK-MEL-2) was > 100 µM (inactive). For the same compound, the GI50 (KM-20L2) was > 100 µM (inactive), the GI50 (SK-MEL-5) was > 100 µM (inactive) and the GI50 (ACHN) was > 100 µM (inactive). The GI50 (OVCAR-3) was > 100 µM (inactive), the GI50 (EKVX) was > 100 µM (inactive) and the GI50 (TK-10) was > 100 µM (inactive). For the same compound, the GI50 (K562) was > 100 µM (inactive), the GI50 (A498) was > 100 µM (inactive) and the GI50 (LOX IMVI) was > 100 µM (inactive). The GI50 (IGROV-1) was > 100 µM (inactive), the GI50 (RXF 393) was 63 µM (inactive) and the GI50 (SF-539) was > 100 µM (inactive). The GI50 (CAKI-1) was > 100 µM (inactive), the GI50 (M19-MEL) was > 100 µM (inactive) and the GI50 (HOP-62) was > 100 µM (inactive). For the same compound, the GI50 (Malme-3M) was > 100 µM (inactive), the GI50 (NCI-H460) was > 100 µM (inactive) and the GI50 (SK-MEL-28) was > 100 µM (inactive). For the same compound, the GI50 (SF-268) was > 100 µM (inactive), the GI50 (OVCAR-5) was > 100 µM (inactive) and the GI50 (UACC-257) was > 100 µM (inactive). The GI50 (SW-620) was > 100 µM (inactive), the GI50 (SN12C) was > 100 µM (inactive) and the GI50 (SR) was > 100 µM (inactive). For the same compound, the GI50 (HT-29) was > 100 µM (inactive), the GI50 (HOP-92) was > 100 µM (inactive) and the GI50 (NCI-H522) was 93.3 µM (inactive). For the same compound, the GI50 (HL-60) was > 100 µM (inactive), the GI50 (786-0) was > 100 µM (inactive) and the GI50 (SNB-75) was > 100 µM (inactive). For the same compound, the GI50 (CCRF-CEM) was 2.5 µM (inactive), the GI50 (DLD-1) was > 100 µM (inactive) and the GI50 (KM12) was > 100 µM (inactive). For the same compound, the GI50 (HOP-18) was > 100 µM (inactive), the GI50 (SK-OV-3) was > 100 µM (inactive) and the GI50 (A549) was > 100 µM (inactive). For the same compound, the GI50 (COLO 205) was > 100 µM (inactive), the GI50 (HCT-15) was greater than 100 µM and the GI50 (M14) was > 100 µM (inactive). The GI50 (NCI-H23) was > 100 µM (inactive), the GI50 (OVCAR-8) was > 100 µM (inactive) and the GI50 (LXFL 529) was > 100 µM (inactive). For the same compound, the GI50 (RPMI-8226) was > 100 µM (inactive), the GI50 (NCI-H226) was > 100 µM (inactive) and the GI50 (OVCAR-4) was > 100 µM (inactive). For the same compound, the GI50 (SNB-78) was > 100 µM (inactive), the GI50 (XF498) was > 100 µM (inactive) and the GI50 (RXF 631) was > 100 µM (inactive). The GI50 (HCT-116) was > 100 µM (inactive), the GI50 (UO-31) was > 100 µM (inactive) and the GI50 (SF-295) was > 100 µM (inactive). The GI50 (DMS-273) was > 100 µM (inactive).
